Our source for the IC50 and melting point values is patent publication US7053070B2, “Pyrido[2,3-d]pyrimidine-2,7-diamine kinase inhibitors” (Warner-Lambert Company, priority 2000, dated 2006).

Where a name gives a salt, the structure may show the parent alone.

One data set concerns the target cdk1/cyclinB (Homo sapiens, UniProt P06493). In words: Cyclin dependent kinase 1 assay (cdk1/cyclinB), 32P incorporation, filter plate. Type of data set: biochemical. Conditions: retinoblastoma substrate, 12 mM ATP, 25° C., 15 minutes; read-out: Inhibition of Cdks: IC50 Cdk1/B. The procedure: (§1) Cyclin Dependent Kinase 1 and 2 Assays (cdk1/cyclinB, cdk2/cyclinA, cdk2/cyclinE)
(§2) Enzyme assays for IC50 determinations and kinetic evaluation are performed in a 96-well filter plate (Millipore MADVN6550) in a total volume of 0.1 mL of 20 mM TRIS (tris[hydroxymethyl]aminomethane), at pH 7.4, 50 mM NaCl, 1 mM dithiothreitol, 10 mM MgCl2, […] containing 0.25 μCi of [^32P]ATP, 20 ng of enzyme (either cdk1/B, cdk2/A, or cdk2E), 1 μg retinoblastoma and appropriate dilutions of the particular invention compound. All components except the ATP are added to the wells, and the plate is placed on a plate mixer for 2 minutes. The reaction is begun by addition of [^32P]ATP, and the plate is incubated at 25° C. for 15 minutes. The reaction is terminated by addition of 0.1 mL of 20% TCA. The plate is kept at 4° C. for at least 1 hour to allow the substrate to precipitate. The wells are then washed 5 times with 0.2 mL of 10% TCA and ^32P incorporation determined with a beta plate counter (Wallac Inc., Gaithersburg, Md.).

A further data set concerns the target cdk4/cyclinD (Homo sapiens, UniProt P11802). In words: Cyclin Dependent Kinase 4 (cdk-4) Assay, 32P incorporation, filter plate. The data set is classed as biochemical. Conditions: retinoblastoma substrate, 25 μM ATP, 25° C., 15 minutes; read-out: Inhibition of Cdks: IC50 Cdk4D. The procedure:
Cyclin Dependent Kinase 4 (cdk-4) Assay
Enzyme assays for IC50 determinations and kinetic evaluation are performed in 96-well filter plates (Millipore MADVN6550). The total volume is 0.1 mL containing a final concentration of 20 mM TRIS (tris[hydroxymethyl]aminomethane), at pH 7.4, 50 mM NaCl, 1 mM dithiothreitol, 10 mM MgCl2, 25 μM ATP containing 0.25 μCi of [^32P]ATP, 20 ng of cdk4, 1 μg of retinoblastoma, and appropriate dilutions of a compound of the present invention. All components except the ATP are added to the wells, and the plate is placed on a plate mixer for 2 minutes. The reaction is started by adding [^32P]ATP, and the plate is incubated at 25° C. for 15 minutes. The reaction is terminated by addition of 0.1 mL of 20% trichloroacetic acid (TCA). The plate is kept at 4° C. for at least 1 hour to allow the substrate to precipitate. The wells are then washed 5 times with 0.2 mL of 10% TCA and ^32P incorporation is determined with a beta plate counter (Wallac Inc., Gaithersburg, Md.).

Another data set has as its target cdk2/cyclinE (Homo sapiens, UniProt P24941). The data set can be described thus: Cyclin dependent kinase 2 assay (cdk2/cyclinE), 32P incorporation, filter plate. Conditions: retinoblastoma substrate, 12 mM ATP, 25° C., 15 minutes; read-out: Inhibition of Cdks: IC50 Cdk2/E. Type of data set: biochemical. The procedure:
as §1, §2

The target of the next data set is cdk2/cyclinA (Homo sapiens, UniProt P24941). The data set can be described thus: Cyclin dependent kinase 2 assay (cdk2/cyclinA), 32P incorporation, filter plate. The data set is classed as biochemical. Conditions: retinoblastoma substrate, 12 mM ATP, 25° C., 15 minutes; read-out: Inhibition of Cdks: IC50 Cdk2/A. The procedure: as §1, §2

Chain of cdk4/cyclinD (P11802 whole entry, species assumed): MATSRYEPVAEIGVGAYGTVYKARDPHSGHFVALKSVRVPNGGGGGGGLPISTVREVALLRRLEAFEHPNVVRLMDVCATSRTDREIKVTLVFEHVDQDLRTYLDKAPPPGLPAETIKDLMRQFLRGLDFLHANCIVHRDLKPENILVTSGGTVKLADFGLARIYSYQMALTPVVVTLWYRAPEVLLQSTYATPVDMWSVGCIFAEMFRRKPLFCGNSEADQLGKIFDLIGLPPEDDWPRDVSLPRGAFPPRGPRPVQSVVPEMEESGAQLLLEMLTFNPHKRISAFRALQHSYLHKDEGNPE
Chain of cdk4/cyclinD (P24385 whole entry partner, species assumed): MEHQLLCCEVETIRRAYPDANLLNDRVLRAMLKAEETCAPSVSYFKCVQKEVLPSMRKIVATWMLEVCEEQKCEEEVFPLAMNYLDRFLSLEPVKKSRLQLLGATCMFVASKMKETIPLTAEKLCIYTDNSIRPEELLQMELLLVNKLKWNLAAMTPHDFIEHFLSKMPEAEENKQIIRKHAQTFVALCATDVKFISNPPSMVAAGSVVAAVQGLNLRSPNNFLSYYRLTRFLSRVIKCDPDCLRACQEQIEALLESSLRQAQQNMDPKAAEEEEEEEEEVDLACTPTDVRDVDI
Chain of cdk1/cyclinB (P06493 whole entry, species assumed): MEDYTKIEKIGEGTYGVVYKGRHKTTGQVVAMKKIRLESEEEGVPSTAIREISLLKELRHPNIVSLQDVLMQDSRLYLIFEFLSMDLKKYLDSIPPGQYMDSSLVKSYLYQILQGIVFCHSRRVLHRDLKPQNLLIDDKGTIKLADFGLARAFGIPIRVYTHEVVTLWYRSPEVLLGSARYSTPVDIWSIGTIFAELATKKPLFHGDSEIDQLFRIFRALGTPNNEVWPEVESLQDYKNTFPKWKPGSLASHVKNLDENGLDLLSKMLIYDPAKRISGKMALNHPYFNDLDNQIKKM
Chain of cdk1/cyclinB (P14635 whole entry partner, species assumed): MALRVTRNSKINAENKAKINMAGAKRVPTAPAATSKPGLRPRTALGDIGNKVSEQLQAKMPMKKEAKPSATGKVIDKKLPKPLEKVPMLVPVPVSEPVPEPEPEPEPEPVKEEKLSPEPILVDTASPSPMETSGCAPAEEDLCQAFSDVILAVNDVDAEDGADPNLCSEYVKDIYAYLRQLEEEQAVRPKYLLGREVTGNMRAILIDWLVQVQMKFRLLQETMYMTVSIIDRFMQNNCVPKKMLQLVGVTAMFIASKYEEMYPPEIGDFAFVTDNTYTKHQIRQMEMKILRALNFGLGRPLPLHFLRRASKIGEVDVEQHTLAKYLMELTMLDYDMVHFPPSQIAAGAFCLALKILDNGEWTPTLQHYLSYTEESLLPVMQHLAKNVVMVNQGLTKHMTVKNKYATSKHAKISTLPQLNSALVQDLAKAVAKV

The melting point is the temperature, or range, at which the solid turns liquid. For `CC(C)[C@H](CO)NC(=O)Nc1ccc2cnc(Nc3ccc(N4CCNCC4)cc3)nc2n1` [Compound 88, 1-((R)-1-Hydroxymethyl-2-methyl-propyl)-3-[2-(4-piperazin-1-yl-phenylamino)-pyrido[2,3-d]pyrimidin-7-yl]-urea], the melting point is 200 °C (dec.). The IC50 at cdk1/cyclinB came out at 0.418 µM. In addition, at cdk4/cyclinD, the IC50 turned out to be 0.025 µM. Further, at cdk2/cyclinE, the IC50 is 0.055 µM. Also, the IC50 on cdk2/cyclinA amounted to 0.043 µM.

For the compound `C[C@@H]1CN(c2ccc(Nc3ncc4ccc(NC(=O)NC(C)(C)C)nc4n3)cc2)C[C@H](C)N1` [Compound 49, 1-tert-Butyl-3-{2-[4-(cis-3,5-dimethyl-piperazin-1-yl)-phenylamino]-pyrido[2,3-d]pyrimidin-7-yl}-urea], the melting point is 245 °C (dec.). The IC50 on cdk1/cyclinB stood at 0.911 µM. In addition, the IC50 at cdk4/cyclinD worked out at 0.05 µM. Further, the IC50 at cdk2/cyclinE was 0.475 µM. In addition, on cdk2/cyclinA, the IC50 was determined as 0.528 µM.

As to `Cc1c(F)c(NC(=O)NC(C)C)nc2nc(Nc3ccc(N4CCNCC4)cc3)ncc12` [Compound 114, 1-[6-Fluoro-5-methyl-2-(4-piperazin-1-yl-phenylamino)-pyrido[2,3-d]pyrimidin-7-yl]-3-isopropyl-urea], the melting point was 208 °C (dec.). The IC50 on cdk1/cyclinB was more than 5 µM. Also, the IC50 at cdk4/cyclinD is more than 5 µM. The IC50 on cdk2/cyclinE is more than 5 µM. The IC50 on cdk2/cyclinA was more than 5 µM.

As for `O=C(NCCO)Nc1ccc2cnc(Nc3ccc(F)cc3)nc2n1` [Compound 97, 1-[2-(4-Fluoro-phenylamino)-pyrido[2,3-d]pyrimidin-7-yl]-3-(2-hydroxy-ethyl)-urea], the melting point fell in the range of 238 to 240 °C. The IC50 on cdk1/cyclinB stood at 0.862 µM. Further, the IC50 on cdk4/cyclinD is more than 5 µM. Besides, the IC50 at cdk2/cyclinE came to 0.345 µM. In addition, the IC50 on cdk2/cyclinA came out at 0.278 µM.

As for `Cc1cc(NC(=O)NC2CCCC2)nc2nc(Nc3ccc(N4CCNCC4)cc3)ncc12` [Compound 53, 1-Cyclopentyl-3-[5-methyl-2-(4-piperazin-1-yl-phenylamino)-pyrido[2,3-d]pyrimidin-7-yl]-urea], the melting point was 234 °C (dec.). Moreover, at cdk1/cyclinB, the IC50 was more than 5 µM. Besides, at cdk4/cyclinD, the IC50 is more than 5 µM. For the same compound, the IC50 on cdk2/cyclinE is more than 5 µM. The IC50 at cdk2/cyclinA is more than 5 µM.

On to `CN1CCN(C(=O)Nc2ccc3cnc(Nc4ccc(N5CCNCC5)cc4)nc3n2)CC1` [Compound 84, 4-Methyl-piperazine-1-carboxylic acid [2-(4-piperazin-1-yl-phenylamino)-pyrido[2,3-d]pyrimidin-7-yl]-amide], for which the melting point is 200 °C (dec.). Also, the IC50 at cdk1/cyclinB was more than 5 µM. The IC50 at cdk4/cyclinD is more than 5 µM. The IC50 at cdk2/cyclinE was more than 5 µM. For the same compound, on cdk2/cyclinA, the IC50 was more than 5 µM.

As for `O=C(Nc1ccc2cnc(Nc3ccc(N4CCNCC4)cc3)nc2n1)N1CCNCC1` [Compound 87, Piperazine-1-carboxylic acid [2-(4-piperazin-1-yl-phenylamino)-pyrido[2,3-d]pyrimidin-7-yl]-amide], the melting point was 220 °C (dec.). At cdk1/cyclinB, the IC50 is more than 5 µM. At cdk4/cyclinD, the IC50 is more than 5 µM. Moreover, the IC50 on cdk2/cyclinE was more than 5 µM. Besides, the IC50 on cdk2/cyclinA was more than 5 µM.

`NCCNC(=O)Nc1ccc2cnc(Nc3ccc(F)cc3)nc2n1` [Compound 98, 1-(2-Amino-ethyl)-3-[2-(4-fluoro-phenylamino)-pyrido[2,3-d]pyrimidin-7-yl]-urea] came in with a melting point of 217 to 220 °C. For the same compound, the IC50 at cdk1/cyclinB turned out to be 0.442 µM. Also, on cdk4/cyclinD, the IC50 was determined as 1.05 µM. At cdk2/cyclinE, the IC50 turned out to be 0.14 µM. Moreover, on cdk2/cyclinA, the IC50 is 0.157 µM.

In turn, `CCCNC(=O)Nc1cc(C)c2cnc(Nc3ccc(N4CCNCC4)cc3)nc2n1` [Compound 111, 1-[5-Methyl-2-(4-piperazin-1-yl-phenylamino)-pyrido[2,3-d]pyrimidin-7-yl]-3-propyl-urea] came in with a melting point of 223 to 225 °C. For the same compound, the IC50 on cdk1/cyclinB was more than 5 µM. Also, the IC50 on cdk4/cyclinD was more than 5 µM. Besides, the IC50 on cdk2/cyclinE was more than 5 µM. Moreover, the IC50 at cdk2/cyclinA is more than 5 µM.

For `O=C(Nc1ccc2cnc(Nc3ccc(N4CCNCC4)cc3)nc2n1)N(CCO)CCO` [Compound 89, 1,1-Bis-(2-hydroxy-ethyl)-3-[2-(4-piperazin-1-yl-phenylamino)-pyrido[2,3-d]pyrimidin-7-yl]-urea], the melting point was 185 °C (dec.). In addition, at cdk1/cyclinB, the IC50 is more than 5 µM. At cdk4/cyclinD, the IC50 is more than 5 µM. In addition, the IC50 at cdk2/cyclinE is more than 5 µM. Further, the IC50 on cdk2/cyclinA was more than 5 µM.

As for `Cc1cc(NS(=O)(=O)N(C)C)nc2nc(Nc3ccc(N4CCNCC4)cc3)ncc12` [Compound 71], the melting point is 228 to 230 °C (dec.). The IC50 at cdk1/cyclinB is more than 5 µM. Further, the IC50 at cdk4/cyclinD is more than 5 µM. In addition, at cdk2/cyclinE, the IC50 is more than 5 µM. Also, on cdk2/cyclinA, the IC50 was more than 5 µM.

With `O=C(NCCCO)Nc1ccc2cnc(Nc3ccc(N4CCNCC4)cc3)nc2n1` [Compound 81, 1-(3-Hydroxy-propyl)-3-[2-(4-piperazin-1-yl-phenylamino)-pyrido[2,3-d]pyrimidin-7-yl]-urea], the melting point was 183 °C (dec.). Further, the IC50 at cdk1/cyclinB is 2.61 µM. Moreover, at cdk4/cyclinD, the IC50 is 0.5 µM. At cdk2/cyclinE, the IC50 amounted to 3.25 µM. Further, on cdk2/cyclinA, the IC50 stood at 1.56 µM.

Regarding `CN(C(=O)Nc1ccc2cnc(Nc3ccc(N4CCNCC4)cc3)nc2n1)C1CCCCC1` [Compound 65, 1-Cyclohexyl-1-methyl-3-[2-(4-piperazin-1-yl-phenylamino)-pyrido[2,3-d]pyrimidin-7-yl]-urea], the melting point is 177 °C (dec.). For the same compound, at cdk1/cyclinB, the IC50 was more than 5 µM. Also, the IC50 at cdk4/cyclinD is more than 5 µM. In addition, on cdk2/cyclinE, the IC50 was more than 5 µM. The IC50 on cdk2/cyclinA is more than 5 µM.

Regarding `O=C(NCCCN1CCOCC1)Nc1ccc2cnc(Nc3ccc(F)cc3)nc2n1` [Compound 96, 1-[2-(4-Fluoro-phenylamino)-pyrido[2,3-d]pyrimidin-7-yl]-3-(3-morpholin-4-yl-propyl)-urea], the melting point fell in the range of 253 to 256 °C. Further, the IC50 at cdk1/cyclinB came out at 6.36 µM. For the same compound, the IC50 on cdk4/cyclinD was more than 5 µM. Also, the IC50 on cdk2/cyclinE was 1.55 µM. In addition, the IC50 at cdk2/cyclinA was 1.11 µM.

As for `C[C@@H]1CN(c2ccc(Nc3ncc4cc(Cl)c(NC(=O)NC(C)(C)C)nc4n3)cc2)C[C@H](C)N1` [Compound 104, 1-tert-Butyl-3-{6-chloro-2-[4-(cis-3,5-dimethyl-piperazin-1-yl)-phenylamino]-pyrido[2,3-d]pyrimidin-7-yl}-urea], the melting point is 205 °C (dec.). The IC50 at cdk1/cyclinB is more than 5 µM. In addition, on cdk4/cyclinD, the IC50 is 0.185 µM. Moreover, at cdk2/cyclinE, the IC50 was more than 5 µM. For the same compound, at cdk2/cyclinA, the IC50 is more than 5 µM.

As to `C[C@@H]1CN(c2ccc(Nc3ncc4ccc(N(C)C(=O)NC5CCCCC5)nc4n3)cc2)C[C@H](C)N1` [Compound 106, 3-Cyclohexyl-1-{2-[4-(cis-3,5-dimethyl-piperazin-1-yl)-phenylamino]-pyrido[2,3-d]pyrimidin-7-}-1-methyl-urea], the melting point is 170 °C (dec.). Also, the IC50 on cdk2/cyclinE was 0.44 µM. On cdk2/cyclinA, the IC50 is 0.35 µM.

Regarding `CC(C)(C)NC(=O)Nc1ccc2cnc(Nc3ccc(N4CCNCC4)cc3)nc2n1` (as salt: salt) [Compound 1, 1-tert-Butyl-3-[2-(4-piperazin-1-yl-phenylamino)-pyrido[2,3-d]pyrimidin-7-yl]-urea], the melting point is 215 °C (dec.).
